Data as given in patent publication US9617225B2 (VIROSTATICS SRL, priority 2012, dated 2017).

Molecular target: human CDK9/CyclinT kinase complex (Homo sapiens (Human), UniProt P50750)
Experiment: In Vitro CDK9/CyclinT Assay (IMAP fluorescent polarization)
Assay type: biochemical
Conditions: not given
Protocol: In Vitro CDK9/CyclinT Assay
The activity of the compounds described in the present invention can be determined by measuring the phosphorylation of a fluorescently-labeled peptide by human CDK9/CyclinT kinase complex by fluorescent polarization using a commercially available IMAP Screening Express Assay Kit (Molecular devices).
Test compounds were diluted in 100% DMSO to 5 mM stock concentration, then further dilutions were made in H2O or 100% DMSO to desirable concentrations. Each reaction consisted of 5 nM enzyme: CDK9/CyclinT (Proqinase cat#0371-0345-1), 400 nM TAMRA-Rbtide (synthetic 15-mer peptide derived from human retinoblastoma tumor suppressor protein labeled with TAMRA dye, Genecust Europe), 12 μM ATP (=Kmapp, Sigma-Aldrich) and kinase buffer: 20 mM MOPS pH 7 (Sigma-Aldrich), 1 mM DTT (Sigma-Aldrich), 10 mM MgCl2 (Sigma-Aldrich), 0.01% Tween 20 (Sigma-Aldrich).
For each reaction, 4 or 6 μl containing TAMRA-Rbtide, ATP and kianse buffer were combined with 2 μl diluted compound in H2O or 0.028 μl compound in 100% DMSO. The kinase reaction was started by the addition of 2 μl diluted enzyme. The reaction was allowed to run for 1 hour at room temperature. The reaction was stopped by adding 15 μl IMAP beads (1:400 beads in progressive (100% buffer A) 1× buffer).

human CDK9/CyclinT kinase complex, sequence (P50750 whole entry): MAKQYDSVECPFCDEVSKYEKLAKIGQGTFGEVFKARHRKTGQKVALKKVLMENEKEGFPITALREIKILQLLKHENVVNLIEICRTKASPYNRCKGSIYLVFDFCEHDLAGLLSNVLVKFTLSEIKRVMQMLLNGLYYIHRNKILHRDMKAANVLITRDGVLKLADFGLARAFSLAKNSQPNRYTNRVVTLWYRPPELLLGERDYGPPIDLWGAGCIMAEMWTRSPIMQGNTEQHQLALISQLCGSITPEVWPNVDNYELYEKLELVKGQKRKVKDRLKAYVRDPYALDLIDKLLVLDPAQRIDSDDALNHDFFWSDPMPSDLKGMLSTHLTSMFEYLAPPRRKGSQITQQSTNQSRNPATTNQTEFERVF
human CDK9/CyclinT kinase complex, sequence (O60563 whole entry partner): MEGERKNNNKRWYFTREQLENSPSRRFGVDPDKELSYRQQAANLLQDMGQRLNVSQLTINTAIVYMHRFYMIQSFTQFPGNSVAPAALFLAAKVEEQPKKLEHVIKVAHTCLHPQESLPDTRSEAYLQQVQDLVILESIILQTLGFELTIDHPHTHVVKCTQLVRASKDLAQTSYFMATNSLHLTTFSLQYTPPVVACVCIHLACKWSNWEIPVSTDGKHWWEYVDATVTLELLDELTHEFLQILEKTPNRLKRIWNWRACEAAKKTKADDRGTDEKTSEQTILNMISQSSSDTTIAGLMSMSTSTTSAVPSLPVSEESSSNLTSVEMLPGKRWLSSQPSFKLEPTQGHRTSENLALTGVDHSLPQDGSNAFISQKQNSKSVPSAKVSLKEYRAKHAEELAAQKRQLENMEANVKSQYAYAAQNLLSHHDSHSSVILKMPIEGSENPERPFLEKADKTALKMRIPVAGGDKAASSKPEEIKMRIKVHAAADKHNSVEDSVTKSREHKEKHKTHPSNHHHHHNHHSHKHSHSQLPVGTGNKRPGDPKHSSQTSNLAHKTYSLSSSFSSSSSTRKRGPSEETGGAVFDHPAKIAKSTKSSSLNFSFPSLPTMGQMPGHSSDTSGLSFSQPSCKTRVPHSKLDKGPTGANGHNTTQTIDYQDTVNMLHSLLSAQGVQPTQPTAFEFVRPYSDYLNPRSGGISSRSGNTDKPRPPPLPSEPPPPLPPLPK

Compound | IC50 [nM]
COc1ccc(Nc2cc(-c3ccccc3OC)ncn2)cc1C(=O)NCCCN1CCN(C)CC1 [Example 47, 2-Methoxy-5-[6-(2-methoxy-phenyl)-pyrimidin-4-ylamino]-N-[3-(4-methyl-piperazin-1-yl)-propyl]-benzamide] | < 1000
COc1ccc(Nc2cc(-c3ccccc3OC)ncn2)cc1NC(C)=O [Example 50, N-{2-Methoxy-5-[6-(2-methoxy-phenyl)-pyrimidin-4-ylamino]-phenyl}-acetamide] | < 1000
COc1ccc(-c2cc(Nc3ccc(OC)c([N+](=O)[O-])c3)ncn2)cc1 [Example 65, (4-Methoxy-3-nitro-phenyl)-[6-(4-methoxy-phenyl)-pyrimidin-4-yl]-amine] | > 10000
COc1ccc(Nc2cc(-c3ccccc3OC)ncn2)cc1OC(C)=O [Example 93, Acetic acid 2-methoxy-5-[6-(2-methoxy-phenyl)-pyrimidin-4-ylamino]-phenyl ester] | < 1000
COc1ccccc1-c1cc(Nc2ccc(Oc3ccccc3)c([N+](=O)[O-])c2)ncn1 [Example 96, [6-(2-Methoxy-phenyl)-pyrimidin-4-yl]-(3-nitro-4-phenoxy-phenyl)-amine] | > 10000

Same assay, conditions: Table 1

Compound | IC50 [nM]
COc1ccc(Nc2cc(-c3ccccc3OC)ncn2)cc1C(=O)NCCO [Example 48, N-(2-Hydroxy-ethyl)-2-methoxy-5-[6-(2-methoxy-phenyl)-pyrimidin-4-ylamino]-benzamide] | < 1000
COC(=O)Nc1cc(Nc2cc(-c3ccccc3OC)ncn2)ccc1OC [Example 51, {2-Methoxy-5-[6-(2-methoxy-phenyl)-pyrimidin-4-ylamino]-phenyl}-carbamic acid methyl ester] | < 1000
CNC(=O)Nc1cc(Nc2cc(-c3ccccc3OC)ncn2)ccc1OC [Example 52, 1-{2-Methoxy-5-[6-(2-methoxy-phenyl)-pyrimidin-4-ylamino]-phenyl}-3-methyl-urea] | < 1000
COc1ccc(Nc2cc(-c3ccccc3OC)ncn2)cc1NC(=O)C(C)(C)C [Example 53, N-{2-Methoxy-5-[6-(2-methoxy-phenyl)-pyrimidin-4-ylamino]-phenyl}-2,2-dimethyl-propionamide] | < 1000
COc1ccc(Nc2cc(-c3ccccc3OC)ncn2)cc1Nc1nc2ccccc2[nH]1 [Example 54, N^3-(1H-Benzoimidazol-2-yl)-4-methoxy-N^1-[6-(2-methoxy-phenyl)-pyrimidin-4-yl]-benzene-1,3-diamine] | < 10000
COc1ccc(Nc2cc(-c3ccccc3OC)ncn2)cc1NC=O [Example 55, N-{2-Methoxy-5-[6-(2-methoxy-phenyl)-pyrimidin-4-ylamino]-phenyl}-formamide] | < 100
COc1ccc(Nc2cc(-c3ccccc3OC)ncn2)cc1NC(N)=O [Example 56, {2-Methoxy-5-[6-(2-methoxy-phenyl)-pyrimidin-4-ylamino]-phenyl}-urea] | < 1000
COc1ccccc1-c1cc(Nc2ccc([N+](=O)[O-])c(F)c2)ncn1 [Example 57, (3-Fluoro-4-nitro-phenyl)-[6-(2-methoxy-phenyl)-pyrimidin-4-yl]-amine] | < 10000
COc1ccccc1-c1cc(Nc2ccc([N+](=O)[O-])c(OC)c2)ncn1 [Example 58, (3-Methoxy-4-nitro-phenyl)-[6-(2-methoxy-phenyl)-pyrimidin-4-yl]-amine] | < 10000
COc1cc(Nc2cc(-c3ccccc3OC)ncn2)ccc1NS(C)(=O)=O [Example 60, N-{2-Methoxy-4-[6-(2-methoxy-phenyl)-pyrimidin-4-ylamino]-phenyl}-methanesulfonamide] | < 1000
CCOc1ccccc1-c1cc(Nc2ccc(OC)c([N+](=O)[O-])c2)ncn1 [Example 61, [6-(2-Ethoxy-phenyl)-pyrimidin-4-yl]-(4-methoxy-3-nitro-phenyl)-amine] | < 1000
COc1cc(F)ccc1-c1cc(Nc2ccc(OC)c([N+](=O)[O-])c2)ncn1 [Example 63, [6-(4-Fluoro-2-methoxy-phenyl)-pyrimidin-4-yl]-(4-methoxy-3-nitro-phenyl)-amine] | < 1000
CCOc1cc(F)ccc1-c1cc(Nc2ccc(OC)c([N+](=O)[O-])c2)ncn1 [Example 72, [6-(2-Ethoxy-4-fluoro-phenyl)-pyrimidin-4-yl]-(4-methoxy-3-nitro-phenyl)-amine] | < 1000
COc1ccc(F)cc1-c1cc(Nc2ccc(OC)c([N+](=O)[O-])c2)ncn1 [Example 74, [6-(5-Fluoro-2-methoxy-phenyl)-pyrimidin-4-yl]-(4-methoxy-3-nitro-phenyl)-amine] | < 10000
COc1ccc(Nc2cc(-c3ccccc3Oc3ccccc3)ncn2)cc1[N+](=O)[O-] [Example 76, (4-Methoxy-3-nitro-phenyl)-[6-(2-phenoxy-phenyl)-pyrimidin-4-yl]-amine] | > 10000
COc1ccc(Nc2cc(-c3ccccc3OC(C)C)ncn2)cc1[N+](=O)[O-] [Example 78, [6-(2-Isopropoxy-phenyl)-pyrimidin-4-yl]-(4-methoxy-3-nitro-phenyl)-amine] | < 10000
COc1ccc(Nc2cc(-c3cccc(F)c3OC)ncn2)cc1[N+](=O)[O-] [Example 80, [6-(3-Fluoro-2-methoxy-phenyl)-pyrimidin-4-yl]-(4-methoxy-3-nitro-phenyl)-amine] | > 10000
COc1cc(F)c(F)cc1-c1cc(Nc2ccc(OC)c([N+](=O)[O-])c2)ncn1 [Example 82, [6-(4,5-Difluoro-2-methoxy-phenyl)-pyrimidin-4-yl]-(4-methoxy-3-nitro-phenyl)-amine] | > 10000
COc1ccc(Nc2cc(-c3cc(F)c(F)cc3OC)ncn2)cc1NC=O [Example 84, N-{5-[6-(4,5-Difluoro-2-methoxy-phenyl)-pyrimidin-4-ylamino]-2-methoxy-phenyl}-formamide] | < 1000
COc1ccc(Nc2cc(-c3ccc(F)cc3OC(C)C)ncn2)cc1[N+](=O)[O-] [Example 85, [6-(4-Fluoro-2-isopropoxy-phenyl)-pyrimidin-4-yl]-(4-methoxy-3-nitro-phenyl)-amine] | < 1000
COc1ccccc1-c1cc(Nc2cc(F)c(OC)c([N+](=O)[O-])c2)ncn1 [Example 87, (3-Fluoro-4-methoxy-5-nitro-phenyl)-[6-(2-methoxy-phenyl)-pyrimidin-4-yl]-amine] | < 10000
COc1ccc(F)cc1-c1cc(Nc2cc(N)c(OC)c(F)c2)ncn1 [Example 91, 5-Fluoro-N^1-[6-(5-fluoro-2-methoxy-phenyl)-pyrimidin-4-yl]-4-methoxy-benzene-1,3-diamine] | < 1000
COc1ccc(Nc2cc(-c3ccccc3OC)ncn2)cc1OC(=O)N(C)C [Example 94, Dimethyl-carbamic acid 2-methoxy-5-[6-(2-methoxy-phenyl)-pyrimidin-4-ylamino]-phenyl ester] | < 1000
COC(=O)Oc1cc(Nc2cc(-c3ccccc3OC)ncn2)ccc1OC [Example 95, Carbonic acid 2-methoxy-5-[6-(2-methoxy-phenyl)-pyrimidin-4-ylamino]-phenyl ester methyl ester] | < 1000
COc1ccccc1-c1cc(Nc2ccc(Oc3ccccc3)c(N)c2)ncn1 [Example 97, N^1-[6-(2-Methoxy-phenyl)-pyrimidin-4-yl]-4-phenoxy-benzene-1,3-diamine] | < 10000
